Measured values from patent US5696239A (The Dow Chemical Company, priority 1995, dated 1997).
Structures can show the parent of a compound that is named as a salt. Where two headings read alike, the source gives them in different places.

Key:
[1] = patients with metastatic bone lesions; cited from earlier work
[2] = In vivo biodistribution of chelates in rats (% dose in organs); conditions: rat, 2 hours after i.v. injection
[3] = Percent complex determination, samarium complexes (Sephadex C-25 cation exchange); type: physicochemical; conditions: for % Complex (10:1), Sm / % Complex, Sm: samarium; for % Complex (10:1), Sm: ligand/metal 10:1; for % Complex, Sm: ligand/metal ratio about 50:1 (** footnote)
Protocol: (§1) A disposable 10 ml plastic (Biorad) column was filled with 1 to 2 ml of water-swelled Sephadex™ C-25 cation exchange resin. The water was pressure eluted to the top of the resin. Fifteen μl of the complex (or more if counts were low) were added to the top of the resin. This was followed by 2 ml of 4:1 (V:V) isotonic saline:conc. ammonium hydroxide solution as an eluent which was allowed to drip into a counting tube. This was also pressure eluted to the top of the resin. An additional 2 ml of the eluent were added and the column pressure eluted to remove all liquid. The dried resin was then placed in a third counting tube and the three tubes counted on a NaI well counter using a Canberra multichannel analyzer linked to a computer. The percent complex was determined by dividing the number of counts in the two elutions by the total counts in the elutions plus the column, all times 100.
Percent complex determination was made in the same manner as for the yttrium complex.

[4] = Complex study: percent yttrium complex after addition of excess metal (lability); type: physicochemical
Protocol: as §1, with “100. By this method, uncomplexed yttrium was retained on the column.” for “100.”
The 1:1 complex of yttrium with 1-(p-aminobenzyl)diethylenetriaminepentaacetic acid (ABDTPA), a well known bifunctional chelant used in the literature, and with the ligand of Example 2 (Now Ex. XVI) and Example 12 (now Ex. XVII) were prepared using the techniques described earlier. Several 100 microliter aliquots were then withdrawn into separate centrifuge tubes. Excess metal was added such that the total volume change is minimized and the time noted. One-half hour after metal addition, the percent complex was determined by the Sephadex™ C-25 method and this was compared to the original amount of complex. The percent complex versus added metal gives an indication as to the lability of the ligand-metal complex. Results are given below and are compared to the EDTA-yttrium complex.

[5] = complexes with Sc-46, Y-91, La-140 and Sm-153; chelant to metal 5:1; cited from earlier work
[6] = Percent complex determination, yttrium complexes (Sephadex C-25 cation exchange); type: physicochemical; conditions: for % Complex (10:1), Y: ligand/metal 10:1, pH 7.4
Protocol: Complexes were made by preparing a 0.0003M yttrium solution in water. (YCl3.6H2 O, 303.26 g/mole; Y(OAc)3, 12.1% H2 O). Radioactive YCl3 (Oakridge National Laboratories) was added to give the desired number of counts. Ten μl of ligand solution (at 0.03M) were added to 990 μl of the Y solution, giving a ligand-to-metal ratio of 1:1. (Ten times the amount of ligand solution was used for a 10:1 ligand to metal ratio.) The pH was then adjusted to 7.4 using microliter quantities of hydrochloric acid or sodium hydroxide. The solution was then tested for the amount of complexed yttrium using the cation exchange method given below.
as §1, with “100. By this method, uncomplexed yttrium was retained on the column.” for “100.”

[7] = rat, in vivo, 120 min; for % Injected Dose in Liver: iv
[8] = Inertness of samarium complex versus pH; type: physicochemical; conditions: Sm
Protocol: as §1, with “100. By this method, uncomplexed yttrium was retained on the column.” for “100.”
(§2) One portion was treated with 1-2 μl portions of 0.1N hydrochloric acid until the pH was lowered and the other portion was treated with 0.1N sodium hydroxide to bring the pH up. The complexes were allowed to set for 5-10 minutes at each pH change, then they were sampled to determine the percent complexation at that pH by the method described for Examples 16 through 33.
as §2, with “of 1.0N” for “of 0.1N”, “with 0.1N, 1.0N and 50 weight %” for “with 0.1N”, “for about 5” for “for 5-10”

[9] = metal/ligand molar ratio 500, one-half hour after metal addition
[10] = Sm complex, ligand/metal about 300:1 (Examples D and E)

For `[89Sr]` [Strontium-89], the blood levels [1] is given as “high blood levels” and the “lesion to normal bone ratios” value [1] is given as “low lesion to normal bone ratios”.
In the case of `[Cl][Sm]([Cl])[Cl]` [SmCl3, samarium chloride, reference compound], the “% Injected Dose in Liver” value ([2]; samarium chloride in unchelated form) is reported as 39%.
For “2-[bis(2-{[(bis(carboxymethyl)]amino}ethyl)amino]-2-[5-acetamido-2-(carboxymethyloxy)phenyl]ethanoic acid and 2-[{2-[(2-{[bis(carboxymethyl)]amino}ethyl)(carboxymethyl)amino]ethyl}(carboxymethyl)amino]-2-[5-acetamido-2-(carboxymethyloxy)-phenyl]ethanoic acid [Example 6]”, the “% Complex (10:1), Sm” value [3] was > 99% and the “% Injected Dose in Liver” value ([2]; Sm complex, ligand/metal 10:1) was 0.38%.
In the case of `O=C(O)CN(CCN(CC(=O)O)CC(=O)O)CC(=O)O` [EDTA, ethylenediaminetetraacetic acid], the “% Complex” value ([4]; metal/ligand molar ratio 250, one-half hour after metal addition) is given as 48%, the “% Complex” value [4, 9] is given as 16% and the “organ distribution of radioactivity” value [5] is given as “high concentrations of radioactivity were observed in the liver, spleen, kidney, lung and bone”. For the same compound, the “% Injected Dose in Liver” value ([2]; Sm complex, ligand/metal 5:1) was 8.4% and the “% Injected Dose in Liver” value [2, 10] was 4.4%.
With `CC(=O)Nc1cc(CN(CCN(CC(=O)O)CC(=O)O)CC(=O)O)c(O)c(CN(CC(=O)O)CC(=O)O)c1` [Example 15, 2-({[BIS(CARBOXYMETHYL)]AMINO}METHYL)-6-{[({[BIS(CARBOXYMETHYL)]AMINO}ETHYL)(CARBOXYMETHYL)AMINO]METHYL}-4-(ACETAMIDO)PHENOL] the “% Complex (10:1), Y” value [6] was 99% and the “% Injected Dose in Liver” value [7] was 0.37%.
With `CC(=O)Nc1ccc(O)c(CN(CCN(CC(=O)O)Cc2cc(NC(C)=O)ccc2O)CC(=O)O)c1` [Example U, N,N'-DI(2-HYDROXY, 5-ACETAMIDOBENZYL)ETHYLENEDIAMINE-N,N'-DIACETIC ACID, reference compound] the “% Injected Dose in Liver” value ([2]; Sm complex, comparative, ligand/metal ratio not stated) was 12%.
For `Nc1ccc(OCC(=O)O)c(C(C(=O)O)N(CCN(CC(=O)O)CC(=O)O)CC(=O)O)c1` (stereo not drawn) [Example 3, 2-[(2-{[BIS(CARBOXYMETHYL)]AMINO}ETHYL)(CARBOXYMETHYL)AMINO]-2-[5-AMINO-2- (CARBOXYMETHLOXY)PHENYL]ETHANOIC ACID, PENTA SODIUM SALT], the “% Complex (10:1), Y” value [6] was > 99% and the “% Injected Dose in Liver” value [7] was 0.22%.
In the case of `CC(=O)Nc1ccc(OCC(=O)O)c(C(C(=O)O)N(CCN(CC(=O)O)CC(=O)O)CC(=O)O)c1` (stereo not drawn) [Example 2, 2-[(2-{[bis(carboxymethyl)]amino}ethyl)(carboxymethyl)amino]-2-[5-acetamido-2-(carboxymethyloxy)phenyl]ethanoic acid], the “% Complex” value [4, 9] is reported as 75%, the “% Complex (10:1), Y” value [6] is reported as > 99% and the “% Complex (10:1), Sm” value [3] is reported as > 99%. The “% Injected Dose in Liver” value [7] was 0.22%.
For `Nc1ccc(OCC(=O)O)c(C(C(=O)O)N(CCN(CCN(CC(=O)O)CC(=O)O)CC(=O)O)CC(=O)O)c1` (stereo not drawn) [Example 8, 2-[{2-[(2-{[BIS(CARBOXYMETHYL)]-AMINO}ETHYL)(CARBOXYMETHYL)AMINO]ETHYL}(CARBOXYMETHYL)AMINO]-2-[5-AMINO-2-(CARBOXYMETHYLOXY)PHENYL]ETHANOIC ACID], the “percent complexation, Sm” value ([3]; as prepared, pH adjusted to about 7) was 96%, the “% Complex, Sm” value [3] was > 99% and the “% Complexed” value ([8]; pH 1, about 5 minutes) was 91%. The “% Complexed” value ([8]; pH 2, about 5 minutes) was 88%, the “% Complexed” value ([8]; pH 3, about 5 minutes) was 92% and the “% Complexed” value ([8]; pH 5, about 5 minutes) was 96%. For the same compound, the “% Complexed” value ([8]; pH 7, about 5 minutes) was 96%, the “% Complexed” value ([8]; pH 9, about 5 minutes) was 99% and the “% Complexed” value ([8]; pH 12, about 5 minutes) was 98%. For the same compound, the “% Complexed” value ([8]; pH 13, about 5 minutes) was 99%.
For `Nc1ccc(O)c(C(NCCNC(C(=O)O)c2cc(N)ccc2O)C(=O)O)c1` (stereo not drawn) [Example X, ethylenediaminedi(2-hydroxy-5-aminophenyl)acetic acid, reference compound], the “% Injected Dose in Liver” value [7] was 24%.
For `CC(=O)Nc1cc(CN(CCN(CC(=O)O)CC(=O)O)CC(=O)O)c(O)c(CN(CCN(CC(=O)O)CC(=O)O)CC(=O)O)c1` [Example 11], the “% Complex (10:1), Y” value [6] was 99% and the “% Complex, Y” value ([6]; ligand/metal ratio about 1:1 (* footnote)) was 98%.
For `CC(=O)Nc1ccc(O)c(C(NCCN(CC(=O)O)CC(=O)O)C(=O)O)c1` (stereo not drawn) [Example 1, 2-[(2-{[bis(carboxymethyl)]amino}ethyl)amino]-2-(5-acetamido-2-hydroxyphenyl)ethanoic acid], the “% Complex (10:1), Y” value [6] was 98%, the “% dose in the blood” value [7] was 0.57% and the “% dose in the bone” value [7] was 56.1%. For the same compound, the “% dose in the muscle” value [7] was 0.78%, the “% dose in the spleen” value [7] was 0.03% and the “% Injected Dose in Liver” value [7] was 0.87%.
In the case of `O=C(O)CN(CC(=O)O)CC(=O)O` [NTA, nitrilotri-acetic acid, reference compound], the “organ distribution of radioactivity” value [5] is given as “high concentrations of radioactivity were observed in the liver, spleen, kidney, lung and bone” and the “% Injected Dose in Liver” value [2, 10] is given as 8.6%.
In the case of “2-[BIS(2-{[(BIS(CARBOXYMETHYL)]AMINO}ETHYL)AMINO]-2-[5-AMINO-2-(CARBOXYMETHYLOXY)PHENYL]ETHANOIC ACID AND 2-[{2-[(2-{[BIS(CARBOXYMETHYL)]AMINO}ETHYL)(CARBOXYMETHYL)AMINO]ETHYL}(CARBOXYMETHYL)AMINO]-2-[5-AMINO-2-(CARBOXYMETHYLOXY)-PHENYL]ETHANOIC ACID [Example 7]”, the “percent Sm complexed” value ([3]; as prepared, pH adjusted to about 7.5) is reported as 100%, the “% Complex, Sm” value [3] is reported as 96% and the “% Complexed” value ([8]; pH 1, 5-10 minutes) is reported as 98%. The “% Complexed” value ([8]; pH 2, 5-10 minutes) was 100%, the “% Complexed” value ([8]; pH 3, 5-10 minutes) was 100% and the “% Complexed” value ([8]; pH 4, 5-10 minutes) was 100%. The “% Complexed” value ([8]; pH 5, 5-10 minutes) was 100%, the “% Complexed” value ([8]; pH 7, 5-10 minutes) was 100% and the “% Complexed” value ([8]; pH 9, 5-10 minutes) was 100%. The “% Complexed” value ([8]; pH 11, 5-10 minutes) was 100% and the “% Complexed” value ([8]; pH 13, 5-10 minutes) was 100%.
With `Nc1ccc(O)c(C(C(=O)O)N(CCN(CC(=O)O)CC(=O)O)CC(=O)O)c1` (stereo not drawn) [Example 5, 2-[(2-{[BIS(CARBOXYMETHYL)]AMINO}ETHYL)(CARBOXYMETHYL)AMINO]-2-(5-AMINO-2- HYDROXYPHENYL)ETHANOIC ACID] the “% Complex (10:1), Y” value [6] was 99% and the “% Injected Dose in Liver” value [7] was 0.38%.
In the case of “2-[(2-[(2-[(2-{[BIS(CARBOXYMETHYL)]AMINO}ETHYL)(CARBOXYMETHYL)AMINO]ETHYL)(CARBOXYMETHYL)AMINO]ETHYL)(CARBOXYMETHYL)AMINO]-2-[5-ACETAMIDO-2-(CARBOXYMETHYLOXY)PHENYL]ETHANOIC ACID AND 2[(2-[(2-{[BIS(CARBOXYMETHYL)]AMINO}ETHYL)(CARBOXY-METHYL)AMINO]ETHYL)(2-{[BIS(CARBOXYMETHYL)]AMINO}-ETHYL)AMINO]-2-[5-ACETAMIDO-2-(CARBOXYMETHYLOXY)PHENYL]-ETHANOIC ACID [Example 9]”, the “% Complex (10:1), Sm” value [3] is reported as > 99% and the “% Injected Dose in Liver” value ([2]; Sm complex, ligand/metal 10:1) is reported as 2.8%.
In the case of `CC(=O)Nc1ccc(O)c(C(C(=O)O)N(CC#N)CCN(CC(=O)O)CC(=O)O)c1` (stereo not drawn) [Example 4, 2-[(2-{[bis(carboxymethyl)]amino}ethyl)(cyanomethyl)amino]-2-(5-acetamido-2-hydroxyphenyl)ethanoic acid], the “% Complex (10:1), Y” value [6] is reported as > 99% and the “% Injected Dose in Liver” value [7] is reported as 1.4%.
